Data taken from ChEMBL document CHEMBL1255184, “A novel series of positive modulators of the AMPA receptor: structure-based lead optimization” (Bioorg Med Chem Lett, 2010).
In brackets after ≈: the same amount, converted by molar mass. Activity calls are given as the source filed them. The calls are words filed in the database; no cut-off is given here.

Experiments:
[1] = Intrinsic clearance in rat microsomes; assay type: ADME, Microsome
[2] = Intrinsic clearance in human microsomes; assay type: ADME, Microsome
[3] = Plasma clearance in Wistar rat at 2 mg/kg, iv; assay type: ADME, organism-based; design: dose 2 mg/kg, route intravenous
[4] = Ratio of drug level in brain to plasma in Wistar rat; assay type: ADME
[5] = Oral bioavailability in Wistar rat at 10 mg/kg; assay type: ADME, organism-based; settings: in vivo
[6] = Solubility of the compound; assay type: physicochemical
[7] = Half life in Wistar rat at 2 mg/kg, iv; assay type: ADME, organism-based; design: dose 2 mg/kg, route intravenous; settings: in vivo
[8] = Volume of distribution at steady state in Wistar rat at 2 mg/kg, iv; assay type: ADME, organism-based; design: dose 2 mg/kg, route intravenous; settings: in vivo, read-out: Vdss
[9] = Inhibition of NMDA receptor
Rattus norvegicus = assay: Potentiation of AMPA-induced single unit activity in iv dosed hippocampus of anesthetized rat by electrophysiology assay; assay type: functional; settings: read-out: MED
[10] = Inhibition of GABA receptor
[11] = Inhibition of kainate receptor

| Compound | microsomal CLint [1] | microsomal CLint [2] | clearance [3] | Kp [4] | bioavailability [5] | solubility [6] | half-life [7] | Vd [8] | inhibition [9] | minimal effective dose (Rattus norvegicus) | inhibition [10] | inhibition [11] |
| --- | --- | --- | --- | --- | --- | --- | --- | --- | --- | --- | --- | --- |
| CNCc1cn(CC(=O)Nc2sc3c(c2C(=O)NC)CCCC3)nc1C(F)(F)F | 33 µL/min/mg | 16 µL/min/mg | 43 mL/min/kg | – | – | – | – | – | – | – | – | – |
| NC(=O)c1c(NC(=O)Cn2nc(C(F)(F)F)c3c2CCNC3)sc2c1CCCC2 | 33 µL/min/mg | 57 µL/min/mg | – | – | – | – | – | – | – | – | – | – |
| O=C(Cn1nc(C(F)(F)F)c2c1CCCC2)Nc1sc2c(c1C(=O)N[C@@H]1CCNC1)CCCC2 | – | – | 2.3 mL/min/kg | 1.03 | 4% | 20 µg/mL (≈ 40.4 µM) | 3.8 h | 0.5 L/kg | – | – | – | – |
| CNCc1cn(CC(=O)Nc2sc3c(c2C(N)=O)CCCC3)nc1C(F)(F)F | < 12 µL/min/mg | 33 µL/min/mg | 23 mL/min/kg | – | 15% | 65 µg/mL (≈ 156 µM) | 1.5 h | 2.4 L/kg | – | – | – | – |
| CNCc1cn(CCC(=O)Nc2sc3c(c2C(N)=O)CCCC3)nc1C(F)(F)F | 49 µL/min/mg | 89 µL/min/mg | – | – | – | – | – | – | – | – | – | – |
| CCNCc1cn(CC(=O)Nc2sc3c(c2C(N)=O)CCCC3)nc1C(F)(F)F | < 19 µL/min/mg | < 12 µL/min/mg | 15 mL/min/kg | 0.05 | 43% | 107 µg/mL (≈ 249 µM) | 1.1 h | 0.6 L/kg | inactive | 0.3 mg/kg | inactive | inactive |
| CCN(CC)Cc1cn(CC(=O)Nc2sc3c(c2C(N)=O)CCCC3)nc1C(F)(F)F | > 270 µL/min/mg | > 270 µL/min/mg | – | – | – | – | – | – | – | – | – | – |
| O=C(Cn1nc(C(F)(F)F)c2c1CCCC2)Nc1sc2c(c1CO)CCCC2 | > 270 µL/min/mg | > 270 µL/min/mg | – | – | – | – | – | – | – | – | – | – |
| CNCc1cn(CC(=O)Nc2sc3c(c2C(N)=O)CCCC3)nc1C(C)(C)C | 15 µL/min/mg | 15 µL/min/mg | 9 mL/min/kg | – | 16% | 79 µg/mL (≈ 196 µM) | 1.9 h | 1.1 L/kg | – | – | – | – |
